{
  "source": "paper PMC5715147",
  "about": "“Albumin/vaccine nanocomplexes that assemble in vivo for combination cancer immunotherapy” (Nature Communications, 2017)",
  "key": {"[1]": {"conditions": "rhesus monkey, in vivo; cited from earlier work", "text": "Here we took a clinically oriented perspective to develop AlbiVax by first repurposing a clinically practiced EB that binds to albumin at binding site I[33], and then conjugating molecular vaccines with an EB derivative. The resulting albumin/AlbiVax nanocomplexes that assemble in vivo were efficiently delivered to LNs and induced potent and durable anti-cancer immunity. EB and derivatives have been developed for preclinical and clinical LN identification[34]–[39]. They have excellent clinical safety profiles[36],[39], and rhesus monkeys survived 25 mg kg^−1 systemically injected EB[40], a dos ... || Safe and robust T cell vaccines would hold great promise for combination cancer immunotherapy. Locally administered vaccines must provide efficient delivery to LNs for effective antitumor immunomodulation. Nanovaccines are a promising approach for efficient vaccine delivery to LNs, and quite a few have been developed preclinically, yet the clinical translation of these nanoformulas has been hindered by limitations in their safety, suitability for reproducible large-scale manufacturing, and in vivo integrity. We chose albumin, one of the most successful carriers of nanomedicines in the clinic, ..."}, "[2]": {"assay": "PET quantification of vaccine delivery to draining LNs after s.c. injection", "type": "in vivo, FVB mice", "conditions": "64Cu-labeled, s.c. at tail base", "protocol": "AlbiVax was radiolabeled with ^64Cu for PET. To label ^64Cu via chelation, a NOTA-functionalized MEB (NMEB) was synthesized and conjugated with vaccines. […] The reaction was shaken for 0.5 h at 37 °C. Thereafter, the radiochemical purity was determined using iTLC plates (Fisher Scientific), developed in 0.1 M citric acid (pH 5).\nFemale FVB mice (6–8 weeks) were used in all PET imaging studies in naive mice. C57BL/6 mice (6–8 weeks) were used in PET imaging of tumor-bearing mice. Mice were anesthetized using isoflurane/O^2 (2% v v^−1) before injection. Anesthetized mice were injected s.c. at the base of tail with ^64Cu-labeled vaccines (4.44−5.55 MBq/120–150 μCi each mouse) in PBS (100 μL). At indicated time points post injection, mice were scanned on an Inveon DPET scanner (Siemens Medical Solutions, Malvern, PA). PET images were reconstructed without correction for attenuation or scattering using a three-dimensional ordered subsets expectation maximization algorithm. ASI Pro VM^TM software was used for image analysis. Regions of interest (ROI) were drawn on LNs to calculate the %ID/g."}, "[3]": {"assay": "Biodistribution in resected organs by γ counting", "parameters": "species or system FVB mice", "conditions": "mouse, in vivo, sc", "protocol": "The above mice were killed at specified time points. Organs and blood were collected and wet weighed. The collected organs and blood, together with a series of standard solutions, were measured for ^64Cu radioactivity on a gamma counter (Wallac Wizard 1480, PerkinElmer). The radioactivity of organs and blood was converted to calculate the percentages of the injected dose (%ID) in organs of interest and the percentages of the injected dose per gram of tissue (%ID/g)."}, "[4]": {"conditions": "human, in vivo; cited from earlier work"}},
  "data": [
    {"compound": "Cc1cc(-c2ccc(/N=N/c3ccc4c(S(=O)(=O)O)cc(S(=O)(=O)O)c(N)c4c3O)c(C)c2)ccc1/N=N/c1ccc2c(S(=O)(=O)O)cc(S(=O)(=O)O)c(N)c2c1O", "note": "[EB, Evans blue]", "values": [
      {"measurement": "systemically injected dose survived", "setting": "[1]", "value": 25, "unit": "mg/kg"}
    ]},
    {"compound": "CC(C)C[C@H](NC(=O)[C@H](Cc1c[nH]c2ccccc12)NC(=O)[C@@H](NC(=O)[C@H](Cc1ccccc1)NC(=O)[C@H](Cc1ccccc1)NC(=O)[C@H](CC(=O)O)NC(=O)[C@H](Cc1ccc(O)cc1)NC(=O)[C@@H](NC(=O)[C@H](CO)NC(=O)[C@@H](N)CS)C(C)C)C(C)C)C(=O)O", "note": "[Trp2]", "values": [
      {"measurement": "LN delivery (in words)", "setting": "[2]; PET", "value": "no detectable"}
    ]},
    {"compound": "CpG: CpG1826 (TCCATGACGTTCCTGACGTT), phosphorothioate oligodeoxynucleotide, TLR9 agonist", "values": [
      {"measurement": "injection dose (%ID) delivered to inguinal (IN) and axillary (AX) LNs", "setting": "[2]; 4.4–5.5 Mbq, decay-corrected PET over 3 days, n = 4–8", "value": "< 0.3", "unit": "%ID"},
      {"measurement": "%ID/g in IN LNs on day 5", "setting": "[3]", "value": "2.5 ± 1.3", "unit": "%ID/g"},
      {"measurement": "percent injection dose per gram of tissue in IN LNs on day 3", "setting": "[3]", "value": "8.3 ± 4.7", "unit": "%ID/g"}
    ]},
    {"compound": "albumin", "values": [
      {"measurement": "half-life", "setting": "[4]", "value": "over 20 days"}
    ]}
  ]
}
